Key:
5-HT2A receptor = target: T1, 5-HT2A receptor (Homo sapiens, UniProt P28223); assay: Radioligand binding assay, serotoninergic 5-HT2A receptors; conditions: for Ki: read-out: Inhibition constants Ki, 5-HT2A
T1 construct: purchased PerkinElmer
In short: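 Competition curves from scintillation-counted specific binding (total minus binding with excess unlabelled ligand) were Hill-fitted to give IC50, converted to Ki via Cheng-Prusoff using Scatchard-derived Kd.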

[1] = target: T2, serotonin transporter (SERT) (Homo sapiens, UniProt P31645); assay: Radioligand binding assay, serotonin transporter (SERT); conditions: binding assay, test compound 1×10^−6 M
T2 construct: expressed in transfected cells; host or cells: CHO cells
T2 sequence (P31645 whole entry): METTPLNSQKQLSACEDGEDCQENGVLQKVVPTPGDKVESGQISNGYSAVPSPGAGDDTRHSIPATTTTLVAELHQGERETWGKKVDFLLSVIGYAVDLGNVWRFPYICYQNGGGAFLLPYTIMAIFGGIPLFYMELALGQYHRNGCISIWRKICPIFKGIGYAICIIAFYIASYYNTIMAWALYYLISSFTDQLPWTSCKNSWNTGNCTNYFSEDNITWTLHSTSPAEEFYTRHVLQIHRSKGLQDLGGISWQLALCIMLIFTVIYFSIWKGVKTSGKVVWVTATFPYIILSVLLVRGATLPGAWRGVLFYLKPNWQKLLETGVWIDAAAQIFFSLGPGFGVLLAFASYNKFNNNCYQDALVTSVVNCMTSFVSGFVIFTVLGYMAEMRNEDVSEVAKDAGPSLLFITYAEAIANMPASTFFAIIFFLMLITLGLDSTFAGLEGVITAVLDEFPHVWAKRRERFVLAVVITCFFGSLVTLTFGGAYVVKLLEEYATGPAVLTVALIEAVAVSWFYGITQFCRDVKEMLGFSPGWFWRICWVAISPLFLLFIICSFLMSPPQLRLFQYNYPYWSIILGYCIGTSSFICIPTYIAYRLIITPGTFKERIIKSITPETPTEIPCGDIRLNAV
In short: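 Values are derived from competition curves fitted by the Hill equation to give IC50, then converted to Ki by Cheng-Prusoff with radioligand Kd from Scatchard analysis. Specific binding equals total minus non-specific (excess cold ligand), counted by scintillation, and is also expressed as percent inhibition of control.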

[2] = target: T3, H1 histaminergic receptors (Homo sapiens, UniProt P35367); assay: Radioligand binding assay, histaminergic H1 receptors; conditions: human recombinant (HEK-293 cells), [3H]pyrilamine 1 nM
T3 construct: expressed in transfected cells; host or cells: HEK-293 cells
T3 sequence (P35367 whole entry): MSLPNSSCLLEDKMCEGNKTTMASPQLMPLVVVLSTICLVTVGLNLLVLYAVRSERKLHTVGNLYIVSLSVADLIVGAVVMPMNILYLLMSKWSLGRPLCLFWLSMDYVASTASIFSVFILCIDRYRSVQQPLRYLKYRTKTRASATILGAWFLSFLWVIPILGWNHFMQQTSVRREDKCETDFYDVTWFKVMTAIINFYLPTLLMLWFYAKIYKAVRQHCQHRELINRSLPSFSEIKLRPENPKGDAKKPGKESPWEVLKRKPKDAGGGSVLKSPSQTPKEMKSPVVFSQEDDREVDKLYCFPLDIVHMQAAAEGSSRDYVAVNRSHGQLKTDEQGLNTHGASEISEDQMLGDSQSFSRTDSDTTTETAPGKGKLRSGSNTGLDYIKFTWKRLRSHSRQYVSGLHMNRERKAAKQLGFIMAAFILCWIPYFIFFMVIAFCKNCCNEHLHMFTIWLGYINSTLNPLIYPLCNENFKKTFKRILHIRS
In short: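 Competition binding at human H1 receptors; specific binding taken as total minus non-specific binding in excess unlabelled ligand, scintillation read-out. IC50 from Hill-equation fit of competition curves; Ki by Cheng-Prusoff using radioligand concentration and Kd (from Scatchard plot).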

M3 muscarinic receptors = target: T4, M3 muscarinic receptors (Homo sapiens, UniProt P20309); assay: Radioligand binding assay, muscarinic M3 receptors; conditions: test compound 1×10^−6 M
T4 construct: expressed in transfected cells; host or cells: CHO cells
T4 sequence (P20309 whole entry): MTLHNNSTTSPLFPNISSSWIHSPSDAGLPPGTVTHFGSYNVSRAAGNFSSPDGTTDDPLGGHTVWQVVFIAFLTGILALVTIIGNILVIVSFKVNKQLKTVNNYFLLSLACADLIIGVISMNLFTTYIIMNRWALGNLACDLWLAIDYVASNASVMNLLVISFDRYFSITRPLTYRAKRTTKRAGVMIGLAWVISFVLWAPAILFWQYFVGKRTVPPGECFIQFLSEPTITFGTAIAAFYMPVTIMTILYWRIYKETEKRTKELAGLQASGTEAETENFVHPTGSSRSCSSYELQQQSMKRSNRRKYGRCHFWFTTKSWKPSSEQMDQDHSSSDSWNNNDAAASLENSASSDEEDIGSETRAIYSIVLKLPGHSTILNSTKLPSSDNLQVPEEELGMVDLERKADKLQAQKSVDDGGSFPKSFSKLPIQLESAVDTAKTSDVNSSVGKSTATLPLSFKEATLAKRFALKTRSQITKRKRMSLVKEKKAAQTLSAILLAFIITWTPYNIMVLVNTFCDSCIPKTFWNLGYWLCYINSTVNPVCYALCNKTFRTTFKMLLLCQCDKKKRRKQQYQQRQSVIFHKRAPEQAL
In short: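 Radioligand competition binding, detected by scintillation counting; non-specific binding defined with excess unlabelled ligand. Results given as % inhibition of control specific binding; IC50 from Hill-equation fit of competition curves, Ki via Cheng-Prusoff with radioligand KD from Scatchard plot.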

5-HT6 receptor = target: T5, 5-HT6 receptor (Homo sapiens, UniProt P50406); assay: Radioligand binding assay, serotoninergic 5-HT6 receptors; conditions: for Ki: read-out: Inhibition constants Ki, 5-HT6;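 for 5-HT6 [%]: test compound at 1 µM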
T5 construct: purchased PerkinElmer
T5 sequence (P50406 whole entry): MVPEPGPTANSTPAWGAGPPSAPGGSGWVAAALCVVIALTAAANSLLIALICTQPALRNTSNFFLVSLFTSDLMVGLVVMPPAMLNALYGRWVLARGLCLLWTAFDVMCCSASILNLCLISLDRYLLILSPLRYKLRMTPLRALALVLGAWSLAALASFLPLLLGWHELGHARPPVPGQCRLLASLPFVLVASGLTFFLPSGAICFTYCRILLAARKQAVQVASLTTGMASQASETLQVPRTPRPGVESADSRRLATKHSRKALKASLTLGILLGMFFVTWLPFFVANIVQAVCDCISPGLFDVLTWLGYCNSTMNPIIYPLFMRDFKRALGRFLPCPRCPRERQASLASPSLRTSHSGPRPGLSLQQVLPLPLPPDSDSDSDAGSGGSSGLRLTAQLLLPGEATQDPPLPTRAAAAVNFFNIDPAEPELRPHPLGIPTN
In short: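 Values are Ki from Cheng–Prusoff, taking IC50 from Hill nonlinear regression of competition curves and KD from a Scatchard plot. Specific binding was total minus binding with excess unlabelled ligand. Radioligand displacement was detected by scintillation counting, and data were also reported as percent of control specific binding.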

[3] = system: α1 adrenergic receptors (rat cerebral cortex); assay: Radioligand binding assay, adrenergic α1 receptors; conditions: test compound 1×10^−6 M
In short: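 Values derive from radioligand displacement, with non-specific binding defined by excess cold ligand and detection by scintillation. Hill-fit IC50s were converted to Ki via Cheng-Prusoff using Scatchard-derived Kd; percent inhibition of control specific binding also reported.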

receptors D4.4 = target: T6, receptors D4.4 (Homo sapiens, UniProt P21917); assay: Radioligand binding assay, dopaminergic D4 (D4.4) receptors; conditions: test compound 1×10^−6 M
T6 sequence (P21917 1-419): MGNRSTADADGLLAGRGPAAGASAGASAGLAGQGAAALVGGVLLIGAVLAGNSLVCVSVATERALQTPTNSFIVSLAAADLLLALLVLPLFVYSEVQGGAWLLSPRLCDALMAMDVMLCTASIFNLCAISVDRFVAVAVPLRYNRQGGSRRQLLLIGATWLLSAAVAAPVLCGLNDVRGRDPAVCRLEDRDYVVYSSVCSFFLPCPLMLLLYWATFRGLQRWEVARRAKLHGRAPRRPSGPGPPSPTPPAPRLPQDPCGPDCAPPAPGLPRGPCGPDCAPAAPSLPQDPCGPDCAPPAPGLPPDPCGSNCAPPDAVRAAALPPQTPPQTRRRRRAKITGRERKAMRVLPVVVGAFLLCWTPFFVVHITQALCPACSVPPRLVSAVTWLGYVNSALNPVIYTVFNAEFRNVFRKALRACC
In short: (§1)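 Scintillation read-out. Specific = total − nonspecific (excess cold ligand). Data as % of control specific binding / % inhibition; IC50 by Hill fit; Ki = IC50/(1+L/KD), KD from Scatchard plot.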

[4] = target: dopaminergic receptors D2 (Homo sapiens, UniProt P14416); assay: Radioligand binding assay, dopaminergic D2 receptors; conditions: for Ki: read-out: Inhibition constants Ki for D2 receptors, D2
Sequence of dopaminergic receptors D2 (P14416 whole entry): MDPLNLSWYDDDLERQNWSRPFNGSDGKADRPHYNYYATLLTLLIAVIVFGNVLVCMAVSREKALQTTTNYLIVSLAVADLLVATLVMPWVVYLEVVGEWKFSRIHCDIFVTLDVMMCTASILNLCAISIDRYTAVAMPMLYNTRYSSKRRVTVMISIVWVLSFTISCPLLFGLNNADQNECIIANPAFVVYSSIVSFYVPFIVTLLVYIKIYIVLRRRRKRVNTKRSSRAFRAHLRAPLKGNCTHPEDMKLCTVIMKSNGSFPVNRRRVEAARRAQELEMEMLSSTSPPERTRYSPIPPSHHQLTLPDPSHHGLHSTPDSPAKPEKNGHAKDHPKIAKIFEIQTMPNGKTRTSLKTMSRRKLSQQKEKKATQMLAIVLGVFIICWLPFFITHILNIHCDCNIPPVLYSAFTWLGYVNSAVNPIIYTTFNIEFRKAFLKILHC
In short: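 Displacement of radioligand from human dopamine D2, D3 or D4.4 receptors, counted by scintillation; specific binding is total minus binding under excess unlabelled ligand. IC50 values come from Hill curve fits of percent inhibition, then converted to Ki by Cheng-Prusoff using Scatchard-derived KD.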

[5] = target: dopaminergic receptors D3 (Homo sapiens, UniProt P35462); assay: Radioligand binding assay, dopaminergic D3 receptors; conditions: test compound 1×10^−6 M
Sequence of dopaminergic receptors D3 (P35462 whole entry): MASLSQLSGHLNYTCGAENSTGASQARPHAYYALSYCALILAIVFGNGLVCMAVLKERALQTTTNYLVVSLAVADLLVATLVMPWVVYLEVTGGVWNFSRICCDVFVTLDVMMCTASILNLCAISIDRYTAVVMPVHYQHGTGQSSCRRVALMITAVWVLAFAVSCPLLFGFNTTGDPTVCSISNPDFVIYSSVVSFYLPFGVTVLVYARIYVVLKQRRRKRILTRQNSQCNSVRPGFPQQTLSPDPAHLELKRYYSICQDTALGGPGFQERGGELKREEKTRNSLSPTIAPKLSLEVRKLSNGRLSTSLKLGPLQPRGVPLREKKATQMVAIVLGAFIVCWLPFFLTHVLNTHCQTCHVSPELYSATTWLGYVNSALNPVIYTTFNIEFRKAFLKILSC
In short: as §1

[6] = binding assay result in %, Table 5a
[7] = binding assay, test compound 1×10^−6 M

T1 sequence (P28223 whole entry): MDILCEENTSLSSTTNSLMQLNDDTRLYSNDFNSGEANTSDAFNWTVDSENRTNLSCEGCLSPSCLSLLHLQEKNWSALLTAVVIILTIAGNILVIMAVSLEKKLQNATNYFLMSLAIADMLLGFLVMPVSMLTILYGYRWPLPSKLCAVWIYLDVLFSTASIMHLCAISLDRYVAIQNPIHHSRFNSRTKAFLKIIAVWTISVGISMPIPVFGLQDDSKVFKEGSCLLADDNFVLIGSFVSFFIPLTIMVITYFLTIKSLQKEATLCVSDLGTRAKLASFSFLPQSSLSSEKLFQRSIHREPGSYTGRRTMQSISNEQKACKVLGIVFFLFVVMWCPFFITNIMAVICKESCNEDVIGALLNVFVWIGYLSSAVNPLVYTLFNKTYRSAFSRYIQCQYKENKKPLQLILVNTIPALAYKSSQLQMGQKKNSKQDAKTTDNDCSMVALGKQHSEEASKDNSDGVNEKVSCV

## O=S(=O)(NCC1CN(CCOc2cccc3c2OCCO3)C1)c1cc2ccccc2o1 [Compound 186, N-[[1-[2-(2,3-Dihydro-1,4-benzodioxin-5-yloxy)ethyl]azetidin-3-yl]methyl]-benzofuran-2-sulphonamide]
5-HT2A receptor; [6]
  inhibition at 1 µM: 87%
[1]
  inhibition at 1 µM: 39%
[2]
  inhibition at 1 µM: 17%
M3 muscarinic receptors
  inhibition at 1 µM: -9%
5-HT6 receptor; [6]
  inhibition at 1 µM: 32%
[3]
  α1 [%]: 80%
Receptors D4.4
  inhibition at 1 µM: 55%
[4]; [7]
  inhibition at 1 µM: 77%
[5]
  inhibition at 1 µM: 78%

## O=S(=O)(N[C@@H]1CCN(CCCc2noc3cc(F)ccc23)C1)c1csc2ccccc12 [Compound 224, N-[(3R)-1-[3-(6-Fluoro-1,2-benzoxazol-3-yl)propyl]pyrrolidin-3-yl]benzothiophene-3-sulphonamide]
5-HT2A receptor
  Ki: 1.6 nM
[1]
  inhibition at 1 µM: 64%
[2]
  inhibition at 1 µM: 60%
M3 muscarinic receptors
  inhibition at 1 µM: 25%
5-HT6 receptor; [6]
  inhibition at 1 µM: 99%
5-HT6 receptor
  Ki: 4 nM
[3]
  α1 [%]: 89%
Receptors D4.4
  inhibition at 1 µM: 101%
[4]; [7]
  inhibition at 1 µM: 98%
[4]
  Ki: 8.7 nM
[5]
  inhibition at 1 µM: 87%

## Cc1c(S(=O)(=O)NC2CCN(CCCc3noc4cc(F)ccc34)C2)sc2ccc(F)cc12 (centres unmarked) [Compound 28, 5-Fluoro-N-[1-[3-(6-fluoro-1,2-benzoxazol-3-yl)propyl]pyrrolidin-3-yl]-3-methyl-benzothiophene-2-sulphonamide]
5-HT2A receptor; [6]
  inhibition at 1 µM: 101%
[1]
  inhibition at 1 µM: 54%
[2]
  inhibition at 1 µM: 63%
M3 muscarinic receptors
  inhibition at 1 µM: 13%
5-HT6 receptor; [6]
  inhibition at 1 µM: 96%
[3]
  α1 [%]: 70%
Receptors D4.4
  inhibition at 1 µM: 75%
[4]; [7]
  inhibition at 1 µM: 97%
[5]
  inhibition at 1 µM: 96%

## O=S(=O)(NC1CCN(CCCc2noc3cc(F)ccc23)C1)c1ccc(Cl)c(F)c1 (centres unmarked) [Compound 11, 4-Chloro-3-fluoro-N-[1-[3-(6-fluoro-1,2-benzoxazol-3-yl)propyl]-pyrrolidin-3-yl]benzene-sulphonamide]
5-HT2A receptor; [6]
  inhibition at 1 µM: 100%
[1]
  inhibition at 1 µM: -6%
[2]
  inhibition at 1 µM: 37%
M3 muscarinic receptors
  inhibition at 1 µM: 3%
5-HT6 receptor; [6]
  inhibition at 1 µM: 94%
[3]
  α1 [%]: 70%
Receptors D4.4
  inhibition at 1 µM: 92%
[4]; [7]
  inhibition at 1 µM: 89%
[5]
  inhibition at 1 µM: 49%

## O=S(=O)(NCC1CN(CCCc2noc3cc(F)ccc23)C1)c1ccc(-c2ccccc2)cc1 [Compound 135, N-[[1-[3-(6-Fluoro-1,2-benzoxazol-3-yl)propyl]azetidin-3-yl]methyl]-4-phenyl-benzenesulphonamide]
5-HT2A receptor; [6]
  inhibition at 1 µM: 99%
[1]
  inhibition at 1 µM: 68%
[2]
  inhibition at 1 µM: 79%
M3 muscarinic receptors
  inhibition at 1 µM: 19%
5-HT6 receptor; [6]
  inhibition at 1 µM: 92%
[3]
  α1 [%]: 88%
Receptors D4.4
  inhibition at 1 µM: 60%
[4]; [7]
  inhibition at 1 µM: 92%
[5]
  inhibition at 1 µM: 94%

## O=S(=O)(N[C@H]1CCN(CCCc2noc3cc(F)ccc23)C1)c1cc2ccc(Cl)cc2s1 [Compound 199, 6-Chloro-N-[(3S)-1-[3-(6-fluoro-1,2-benzoxazol-3-yl)propyl]pyrrolidin-3-yl]benzothiophene-2-sulphonamide]
5-HT2A receptor
  Ki: 0.7 nM
[1]
  inhibition at 1 µM: 39%
[2]
  inhibition at 1 µM: 58%
M3 muscarinic receptors
  inhibition at 1 µM: 38%
5-HT6 receptor; [6]
  inhibition at 1 µM: 91%
5-HT6 receptor
  Ki: 99 nM
[3]
  α1 [%]: 66%
Receptors D4.4
  inhibition at 1 µM: 69%
[4]; [7]
  inhibition at 1 µM: 96%
[4]
  Ki: 4.4 nM
[5]
  inhibition at 1 µM: 88%

## O=S(=O)(NCC1CCN(CCOc2cccc3c2OCCO3)C1)c1ccc(F)c(Cl)c1 (centres unmarked) [Compound 317, 3-Chloro-N-[[1-[2-(2,3-dihydro-1,4-benzodioxin-5-yloxy)ethyl]pyrrolidin-3-yl]methyl]-4-fluorobenzenesulphonamide]
5-HT2A receptor; [6]
  inhibition at 1 µM: 72%
[1]
  inhibition at 1 µM: 63%
[2]
  inhibition at 1 µM: 47%
M3 muscarinic receptors
  inhibition at 1 µM: 8%
5-HT6 receptor; [6]
  inhibition at 1 µM: 76%
[3]
  α1 [%]: 84%
Receptors D4.4
  inhibition at 1 µM: 59%
[4]; [7]
  inhibition at 1 µM: 53%
[5]
  inhibition at 1 µM: 49%

## O=S(=O)(NC1CN(CCOc2cccc3c2OCCO3)C1)c1cccc(F)c1 [Compound 89, N-[1-[2-(2,3-Dihydro-1,4-benzodioxan-8-yloxy)ethyl]azetidin-3-yl]-3-fluoro-benzenesulphonamide]
5-HT2A receptor; [6]
  5-HT2A [%]: 74%
[1]
  SERT [%]: 3%
[2]
  H1 [%]: 3%
M3 muscarinic receptors
  M3 [%]: −6%
5-HT6 receptor; [6]
  5-HT6 [%]: 19%
[3]
  α1 [%]: 45%
Receptors D4.4
  D4.4 [%]: 22%
[4]; [7]
  D2 [%]: 24%
[5]
  D3 [%]: 23%

## O=S(=O)(N[C@@H]1CCN(CCCc2noc3cc(F)ccc23)C1)c1cc2ccccc2o1 [Compound 214, N-[(3R)-1-[3-(6-Fluoro-1,2-benzoxazol-3-yl)propyl]pyrrolidin-3-yl]benzo-furan-2-sulphonamide]
5-HT2A receptor
  Ki: 2.1 nM
[1]
  inhibition at 1 µM: 15%
[2]
  inhibition at 1 µM: 52%
M3 muscarinic receptors
  inhibition at 1 µM: 11%
5-HT6 receptor; [6]
  inhibition at 1 µM: 97%
5-HT6 receptor
  Ki: 7.5 nM
[3]
  α1 [%]: 91%
Receptors D4.4
  inhibition at 1 µM: 61%
[4]; [7]
  inhibition at 1 µM: 97%
[4]
  Ki: 2.8 nM
[5]
  inhibition at 1 µM: 89%

## O=S(=O)(NCC1CCN(CCOc2cccc3c2OCCO3)C1)c1ccc2c(c1)CCO2 (centres unmarked) [Compound 306, N-[[1-[2-(2,3-Dihydro-1,4-benzodioxin-5-yloxy)ethyl]pyrrolidin-3-yl]-methyl]-2,3-dihydrobenzofuran-5-sulphonamide]
5-HT2A receptor; [6]
  inhibition at 1 µM: 81%
[1]
  inhibition at 1 µM: 90%
[2]
  inhibition at 1 µM: 57%
M3 muscarinic receptors
  inhibition at 1 µM: 12%
5-HT6 receptor; [6]
  inhibition at 1 µM: 45%
[3]
  α1 [%]: 90%
Receptors D4.4
  inhibition at 1 µM: 33%
[4]; [7]
  inhibition at 1 µM: 51%
[5]
  inhibition at 1 µM: 26%

## O=S(=O)(NC1CCN(CCCc2noc3cc(F)ccc23)CC1)c1cccc2ccccc12 [Compound 34, N-[1-[3-(6-Fluoro-1,2-benzoxazol-3-yl)propyl]-4-piperidine]-naphthalene-1-sulphonamide]
5-HT2A receptor; [6]
  inhibition at 1 µM: 98%
[1]
  inhibition at 1 µM: 43%
[2]
  inhibition at 1 µM: 56%
M3 muscarinic receptors
  inhibition at 1 µM: 12%
5-HT6 receptor; [6]
  inhibition at 1 µM: 40%
[3]
  α1 [%]: 91%
Receptors D4.4
  inhibition at 1 µM: 37%
[4]; [7]
  inhibition at 1 µM: 76%
[5]
  inhibition at 1 µM: 58%

## O=S(=O)(NCC1CCN(CCOc2cccc3c2OCCO3)C1)c1cccc(O)c1 (centres unmarked) [Compound 303, N-[[1-[2-(2,3-Dihydro-1,4-benzodioxin-5-yloxy)ethyl]pyrrolidin-3-yl]-methyl]-3-hydroxy-benzenesulphonamide]
5-HT2A receptor; [6]
  inhibition at 1 µM: 96%
[1]
  inhibition at 1 µM: 73%
[2]
  inhibition at 1 µM: 68%
M3 muscarinic receptors
  inhibition at 1 µM: 9%
5-HT6 receptor; [6]
  inhibition at 1 µM: 48%
[3]
  α1 [%]: 89%
Receptors D4.4
  inhibition at 1 µM: 39%
[4]; [7]
  inhibition at 1 µM: 79%
[5]
  inhibition at 1 µM: 52%

## O=S(=O)(N[C@@H]1CCN(CCCc2noc3cc(F)ccc23)C1)c1cc2ccc(Cl)cc2s1 [Compound 198, 6-Chloro-N-[(3R)-1-[3-(6-fluoro-1,2-benzoxazol-3-yl)propyl]pyrrolidin-3-yl]benzothiophene-2-sulphonamide]
5-HT2A receptor
  Ki: 0.7 nM
[1]
  inhibition at 1 µM: 44%
[2]
  inhibition at 1 µM: 81%
M3 muscarinic receptors
  inhibition at 1 µM: 37%
5-HT6 receptor; [6]
  inhibition at 1 µM: 97%
5-HT6 receptor
  Ki: 8.6 nM
[3]
  α1 [%]: 76%
Receptors D4.4
  inhibition at 1 µM: 48%
[4]; [7]
  inhibition at 1 µM: 99%
[4]
  Ki: 1.8 nM
[5]
  inhibition at 1 µM: 97%
